From US12011502B2, “Compositions and methods of administering baclofen” (AMNEAL PHARMACEUTICALS LLC, priority 2021, dated 2024)

Key:
[1] = reported in the literature; cited from earlier work
[2] = limited evaluation, literature; cited from earlier work
[3] = Solubility of baclofen in solutions comprising sulfate or phosphate; format: physicochemical
Method: A concentration of 8.8 mg/mL sodium chloride is considered isotonic and therefore desirable as being physiologically acceptable.

| SMILES | dominant metabolite of baclofen, reported share [1] | biological activity of the metabolite [2] | solubility of baclofen ([3]; in solutions comprising sulfate or phosphate) | concentration of baclofen that can be dissolved ([3]; solutions containing phosphate, sulfate, potassium, sodium, or magnesium, such as greater than 3, 4, 5 or 6 mg/mL) |
| --- | --- | --- | --- | --- |
| O=C(O)CC(CO)c1ccc(Cl)cc1 (stereo not shown) [M1, 3-(4-chlorophenyl)-4-hydroxybutyric acid] | 15% | inactive |  |  |
| NCC(CC(=O)O)c1ccc(Cl)cc1 (stereo not shown) [baclofen, 4-amino-3-(4-chlorophenyl)butanoic acid] |  |  | increased | greater than 2 mg/mL |
